# In ChEMBL document CHEMBL1914432, “Discovery of highly potent small molecule Hepatitis C Virus entry inhibitors” (Bioorg Med Chem Lett, 2011):
# Active and inactive are the calls of the source. The calls are words filed in the database; no cut-off is given here.
# Key:
# [1] = tested on: Hepatitis C virus; assay: Antiviral activity against chronic Hepatitis C virus type 2a infected in human HuH7 cells by Renilla luciferase reporter gene assay; assay type: functional, organism-based, Hepacivirus hominis; settings: genotype 2a, Huh-7
# [2] = tested on: Plasma; assay: Metabolic stability in rat plasma; assay type: ADME, cell-free
# [3] = Clearance in rat at 2 mg/kg, iv and 20 mg/kg, po; assay type: ADME, organism-based; settings: in vivo
# [4] = biological target: T1, Scavenger receptor class B member 1 (Homo sapiens) (UniProt Q8WTV0); assay: Inhibition of human SRB1-mediated Hepatitis C virus genotype 2a entry into human 293T cells by immunoblotting; assay type: cell-based
# T1 sequence (whole entry): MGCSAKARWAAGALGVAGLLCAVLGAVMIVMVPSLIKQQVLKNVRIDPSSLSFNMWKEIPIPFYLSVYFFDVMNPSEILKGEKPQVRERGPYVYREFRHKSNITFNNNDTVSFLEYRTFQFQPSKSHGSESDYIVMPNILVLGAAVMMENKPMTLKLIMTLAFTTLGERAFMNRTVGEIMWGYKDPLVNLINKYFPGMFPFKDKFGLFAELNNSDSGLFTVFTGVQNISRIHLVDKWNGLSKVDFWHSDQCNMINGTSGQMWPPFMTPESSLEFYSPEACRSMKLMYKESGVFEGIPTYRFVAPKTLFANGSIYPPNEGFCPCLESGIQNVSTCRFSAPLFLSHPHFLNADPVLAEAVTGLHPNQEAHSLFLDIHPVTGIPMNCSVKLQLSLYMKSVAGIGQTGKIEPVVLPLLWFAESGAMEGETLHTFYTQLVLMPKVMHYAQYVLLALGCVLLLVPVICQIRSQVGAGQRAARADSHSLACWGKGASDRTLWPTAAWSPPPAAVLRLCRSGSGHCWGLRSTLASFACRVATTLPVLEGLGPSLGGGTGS
# [5] = Oral bioavailability in rat at 20 mg/kg; assay type: ADME, organism-based; settings: in vivo
# [6] = Apparent volume of distribution in rat at 2 mg/kg, iv and 20 mg/kg, po; assay type: ADME, organism-based; settings: in vivo, read-out: Vz
# [7] = Cmax in rat at 2 mg/kg, iv and 20 mg/kg, po; assay type: ADME, organism-based; settings: in vivo
# [8] = Half life in rat at 2 mg/kg, iv and 20 mg/kg, po; assay type: ADME, organism-based; settings: in vivo
# [9] = AUC (all) in rat at 2 mg/kg, iv and 20 mg/kg, po; assay type: ADME, organism-based; settings: plasma
# [10] = tested on: Plasma; assay: Drug metabolism in rat plasma assessed as plasma esterase-mediated formation of 9-(3-(4,6-dimethoxypyrimidin-2-ylamino)propyl-2,3,4,9-tetrahydro-1H-carbazole-6-carboxylic acid by LC-MS analysis; assay type: ADME, cell-free
SMILES,IC50 [1] [nM],also measured
COC(=O)c1ccc2c(c1)c1c(n2CCS(=O)(=O)N(C)C)CCCC1,> 1000,–
COC(=O)c1ccc2c(c1)c1c(n2CCCCNc2nc(OC)cc(OC)n2)CCCC1,30,–
COC(=O)c1ccc2c(c1)c1c(n2CCCn2cnc3ncncc32)CCCC1,50,–
COC(=O)c1ccc2c(c1)c1c(n2CCCN2C[C@@H](C)N[C@@H](C)C2)CCCC1,40,–
COC(=O)c1ccc2c(c1)c1c(n2C2CCN(c3nc(OC)cc(OC)n3)CC2)CCCC1,300,–
COC(=O)c1ccc2c(c1)c1c(n2CCCN2C[C@@H](C)O[C@@H](C)C2)CCCC1,25,–
COc1cc(OC)nc(NCCCn2c3c(c4cc(C(=O)NC(C)C)ccc42)CCCC3)n1,150,Stability [2]: Stable
COC(=O)c1ccc2c(c1)c1c(n2CCCn2cncc2C)CCCC1,310,–
COC(=O)c1ccc2c(c1)c1c(n2CCCS(=O)(=O)N2CCCCC2)CCCC1,30,–
COC(=O)c1ccc2c(c1)c1c(n2CC2CCCN(c3nc(OC)cc(OC)n3)C2)CCCC1 (stereo not given),50,–
COC(=O)c1ccc2c(c1)c1c(n2CCCS(=O)(=O)c2ccccc2)CCCC1,50,–
COc1cc(OC)nc(NCCCn2c3c(c4cc(C(=O)N(C)C)ccc42)CCCC3)n1,30,clearance [3]: 45 mL/min/kg; inhibition [4]: Active; bioavailability [5]: 0.6%; Stability [2]: Stable; Vd [6]: 2.05 L/kg; Cmax [7]: 51 ng/mL; half-life [8]: 33 min; AUC [9]: 41 ng·h/mL
COC(=O)c1ccc2c(c1)c1c(n2CCCNc2ncccn2)CCCC1,50,–
COC(=O)c1ccc2c(c1)c1c(n2CCCN2CCOCC2)CCCC1,150,–
COC(=O)c1ccc2c(c1)c1c(n2CCCNc2cc(C)nc(Cl)n2)CCCC1,30,–
COC(=O)c1ccc2c(c1)c1c(n2CCCN2CCCC(C(=O)N(C)C)C2)CCCC1 (stereo not given),50,–
COc1cc(OC)nc(NCCCn2c3c(c4cc(C(=O)O)ccc42)CCCC3)n1,–,Activity ([1]; Hepacivirus hominis): inactive; inhibition [4]: inactive
COC(=O)c1ccc2c(c1)c1c(n2CCCS(=O)(=O)N2CCOCC2)CCCC1,15,–
COC(=O)c1ccc2c(c1)c1c(n2CCCS(=O)(=O)N2C[C@@H](C)O[C@@H](C)C2)CCCC1,150,–
COC(=O)c1ccc2c(c1)c1c(n2CCCNS(=O)(=O)C(C)C)CCCC1,50,–
COC(=O)c1ccc2c(c1)c1c(n2CCCC(=O)N(C)C)CCCC1,300,–
COC(=O)c1ccc2c(c1)c1c(n2CCCn2ccnc2)CCCC1,170,–
COC(=O)c1ccc2c(c1)c1c(n2CCCNc2nc(C)cc(C(=O)OC)n2)CCCC1,30,–
COC(=O)c1ccc2c(c1)c1c(n2CC2CCN(c3nc(OC)cc(OC)n3)CC2)CCCC1,15,–
COC(=O)c1ccc2c(c1)c1c(n2CCCN2CCNC(=O)C2)CCCC1,65,–
CCN(CC)C(=O)c1ccc2c(c1)c1c(n2CCCNc2nc(OC)cc(OC)n2)CCCC1,50,Stability [2]: Stable

# The next lines start with results.
IC50 [1] [nM],SMILES,also measured
5,COC(=O)c1ccc2c(c1)c1c(n2CCCS(=O)(=O)N(C)C)CCCC1,–
0.6,COC(=O)c1ccc2c(c1)c1c(n2CCCOc2nc(OC)cc(OC)n2)CCCC1,–
5,COC(=O)c1ccc2c(c1)c1c(n2CCc2nc3cc(C)c(C)cc3[nH]2)CCCC1,–
1.5,COC(=O)c1ccc2c(c1)c1c(n2CCCN(C)c2nc(OC)cc(OC)n2)CCCC1,–
10,COc1cc(OC)nc(NCCCn2c3c(c4cc(C(=O)OC(C)C)ccc42)CCCC3)n1,clearance [3]: 71.8 mL/min/kg; inhibition [4]: Active; bioavailability [5]: 19%; Stability [2]: Stable; Vd [6]: 17.6 L/kg; Cmax [7]: 547 ng/mL; half-life [8]: 74.4 min; AUC [9]: 896 ng·h/mL
15,COC(=O)c1ccc2c(c1)c1c(n2CCCNc2nccc(OC)n2)CCCC1,–
15,COC(=O)c1ccc2c(c1)c1c(n2CCCNS(=O)(=O)c2cc(F)cc(F)c2)CCCC1,–
5,COC(=O)c1ccc2c(c1)c1c(n2CCc2nc3ccccc3[nH]2)CCCC1,–
15,COC(=O)c1ccc2c(c1)c1c(n2CCCS(=O)(=O)N2CCC2)CCCC1,–
15,COC(=O)c1ccc2c(c1)c1c(n2CCCNc2nc(OC)nc(OC)n2)CCCC1,–
5,COC(=O)c1ccc2c(c1)c1c(n2CCCOc2nc(C)cc(C(F)(F)F)n2)CCCC1,–
10,CNC(=O)c1ccc2c(c1)c1c(n2CCCNc2nc(OC)cc(OC)n2)CCCC1,clearance [3]: 58.2 mL/min/kg; inhibition [4]: Active; bioavailability [5]: 0.8%; Stability [2]: Stable; Vd [6]: 1.33 L/kg; Cmax [7]: 51 ng/mL; half-life [8]: 28.2 min; AUC [9]: 45 ng·h/mL
1.5,COC(=O)c1ccc2c(c1)c1c(n2CCCOc2cc(Cl)nc(C)n2)CCCC1,–
1.5,CCc1cc(CC)nc(OCCCn2c3c(c4cc(C(=O)OC)ccc42)CCCC3)n1,–
1.5,COC(=O)c1ccc2c(c1)c1c(n2CCCNc2nc(OC)cc(OC)n2)CCCC1,inhibition [4]: Active; Drug metabolism [10]: Active
